In patent US8507677B2, “Fluorescent probe” (The University of Tokyo, priority 2007, dated 2013):

Test: pKa values of pH probes (control of pKa by changing structure)
Type: physicochemical
Conditions: pH probe
Source text: By using the pH probe described in the present invention, change of pH can be detected in a range including pKa of the compound according to the fluorescence ratio method or the absorbance ratio method. Compounds 1 to 5 have different pKa values, and accordingly, pH ranges suitable for the detection are different among them. Therefore, a pH probe suitable for a pH range desired to be detected can be chosen and used by utilizing the difference. Similarly, by suitably choosing R^3, R^4 and/or R^5 in the general formula (I), or R^13, R^14 and/or R^15 in the general formula (IA), a pH probe having a desired pKa and thus suitable for measurement of a desired pH range can be designed and provided.

Structure (SMILES) | pKa
CN(C)CCN(C)C1=C(/C=C/C2=[N+](C)c3ccccc3C2(C)C)CCC/C1=C\C=C1\N(C)c2ccccc2C1(C)C [Compound 2] | 8.1
CCN(CC)CCN(C)C1=C(/C=C/C2=[N+](C)c3ccccc3C2(C)C)CCC/C1=C\C=C1\N(C)c2ccccc2C1(C)C [Compound 3] | 8.7
CN1CCN(C2=C(/C=C/C3=[N+](C)c4ccccc4C3(C)C)CCC/C2=C\C=C2\N(C)c3ccccc3C2(C)C)CC1 [Compound 4] | 6.8

Results, then the compound that gave them:

pKa | Structure (SMILES)
5.5 | CN1/C(=C/C=C2\CCCC(/C=C/C3=[N+](C)c4ccccc4C3(C)C)=C2N2CCN(Cc3ccccc3)CC2)C(C)(C)c2ccccc21 [Compound 1]
2.1 | CN1/C(=C/C=C2\CCCC(/C=C/C3=[N+](C)c4ccccc4C3(C)C)=C2N2CCN(c3ccccc3)CC2)C(C)(C)c2ccccc21 [Compound 5]
